Tests used:
[1] = target: Tyrosine-protein kinase Blk (Homo sapiens) (UniProt P51451); assay: Inhibition of human BLK assessed as residual activity at 1 uM relative to control
[2] = target: Aurora kinase B (Homo sapiens, UniProt Q96GD4); assay: Inhibition of human Aurora-B assessed as residual activity at 1 uM relative to control
[3] = target: Fibroblast growth factor receptor 1 (Homo sapiens) (UniProt P11362); assay: Inhibition of human FGFR1 assessed as residual activity at 1 uM relative to control
[4] = target: T1, Inhibitor of nuclear factor kappa-B kinase subunit beta (Homo sapiens) (UniProt O14920); assay: Inhibition of human IKKbeta assessed as residual activity at 1 uM relative to control
T1 sequence (whole entry): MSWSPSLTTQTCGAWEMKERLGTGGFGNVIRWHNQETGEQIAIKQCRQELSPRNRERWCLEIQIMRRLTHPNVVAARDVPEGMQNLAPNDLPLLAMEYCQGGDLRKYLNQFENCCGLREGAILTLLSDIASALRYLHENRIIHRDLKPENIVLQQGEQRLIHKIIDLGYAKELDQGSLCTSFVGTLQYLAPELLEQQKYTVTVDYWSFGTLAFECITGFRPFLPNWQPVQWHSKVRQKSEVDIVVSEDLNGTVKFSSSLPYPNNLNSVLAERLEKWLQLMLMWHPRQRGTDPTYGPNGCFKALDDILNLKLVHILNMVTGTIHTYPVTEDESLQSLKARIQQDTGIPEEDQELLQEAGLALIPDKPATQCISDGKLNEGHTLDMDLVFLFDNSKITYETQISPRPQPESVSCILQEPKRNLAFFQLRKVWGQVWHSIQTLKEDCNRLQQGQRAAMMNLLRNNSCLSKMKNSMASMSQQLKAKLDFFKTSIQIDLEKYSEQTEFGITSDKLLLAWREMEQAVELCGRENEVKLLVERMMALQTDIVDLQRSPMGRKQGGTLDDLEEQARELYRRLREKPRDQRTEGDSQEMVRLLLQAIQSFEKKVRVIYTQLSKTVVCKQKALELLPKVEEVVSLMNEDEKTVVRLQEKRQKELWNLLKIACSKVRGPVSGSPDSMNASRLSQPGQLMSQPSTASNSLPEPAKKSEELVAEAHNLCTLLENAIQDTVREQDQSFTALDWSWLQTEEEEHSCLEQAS

[5] = target: T2, Serine/threonine-protein kinase TBK1 (Homo sapiens, UniProt Q9UHD2); assay: Inhibition of recombinant full-length TBK1 (unknown origin) using CK1tide as substrate by microfluidic mobility shift assay
T2 sequence (Q9UHD2 whole entry): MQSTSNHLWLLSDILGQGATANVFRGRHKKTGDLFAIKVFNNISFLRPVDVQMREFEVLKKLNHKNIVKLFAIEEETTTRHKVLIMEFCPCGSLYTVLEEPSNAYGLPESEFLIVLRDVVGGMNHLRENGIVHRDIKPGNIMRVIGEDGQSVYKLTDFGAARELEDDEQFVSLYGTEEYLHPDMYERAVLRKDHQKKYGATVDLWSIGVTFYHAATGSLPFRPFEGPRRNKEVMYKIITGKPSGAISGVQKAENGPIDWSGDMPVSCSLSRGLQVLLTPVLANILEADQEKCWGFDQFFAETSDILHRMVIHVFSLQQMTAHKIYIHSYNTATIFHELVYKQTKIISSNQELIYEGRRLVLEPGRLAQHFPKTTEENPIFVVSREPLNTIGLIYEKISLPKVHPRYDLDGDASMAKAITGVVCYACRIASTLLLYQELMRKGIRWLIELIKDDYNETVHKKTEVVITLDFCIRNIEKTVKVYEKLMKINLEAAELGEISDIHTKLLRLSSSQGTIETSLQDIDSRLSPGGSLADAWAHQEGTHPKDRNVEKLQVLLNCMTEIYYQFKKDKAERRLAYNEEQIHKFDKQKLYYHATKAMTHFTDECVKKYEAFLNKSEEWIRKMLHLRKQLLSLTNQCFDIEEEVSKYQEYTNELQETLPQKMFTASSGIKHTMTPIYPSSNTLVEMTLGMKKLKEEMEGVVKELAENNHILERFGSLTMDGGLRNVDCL

[6] = target: T3, Tyrosine-protein kinase JAK3 (Homo sapiens) (UniProt P52333); assay: Inhibition of human JAK3 assessed as residual activity at 1 uM relative to control
T3 sequence (whole entry): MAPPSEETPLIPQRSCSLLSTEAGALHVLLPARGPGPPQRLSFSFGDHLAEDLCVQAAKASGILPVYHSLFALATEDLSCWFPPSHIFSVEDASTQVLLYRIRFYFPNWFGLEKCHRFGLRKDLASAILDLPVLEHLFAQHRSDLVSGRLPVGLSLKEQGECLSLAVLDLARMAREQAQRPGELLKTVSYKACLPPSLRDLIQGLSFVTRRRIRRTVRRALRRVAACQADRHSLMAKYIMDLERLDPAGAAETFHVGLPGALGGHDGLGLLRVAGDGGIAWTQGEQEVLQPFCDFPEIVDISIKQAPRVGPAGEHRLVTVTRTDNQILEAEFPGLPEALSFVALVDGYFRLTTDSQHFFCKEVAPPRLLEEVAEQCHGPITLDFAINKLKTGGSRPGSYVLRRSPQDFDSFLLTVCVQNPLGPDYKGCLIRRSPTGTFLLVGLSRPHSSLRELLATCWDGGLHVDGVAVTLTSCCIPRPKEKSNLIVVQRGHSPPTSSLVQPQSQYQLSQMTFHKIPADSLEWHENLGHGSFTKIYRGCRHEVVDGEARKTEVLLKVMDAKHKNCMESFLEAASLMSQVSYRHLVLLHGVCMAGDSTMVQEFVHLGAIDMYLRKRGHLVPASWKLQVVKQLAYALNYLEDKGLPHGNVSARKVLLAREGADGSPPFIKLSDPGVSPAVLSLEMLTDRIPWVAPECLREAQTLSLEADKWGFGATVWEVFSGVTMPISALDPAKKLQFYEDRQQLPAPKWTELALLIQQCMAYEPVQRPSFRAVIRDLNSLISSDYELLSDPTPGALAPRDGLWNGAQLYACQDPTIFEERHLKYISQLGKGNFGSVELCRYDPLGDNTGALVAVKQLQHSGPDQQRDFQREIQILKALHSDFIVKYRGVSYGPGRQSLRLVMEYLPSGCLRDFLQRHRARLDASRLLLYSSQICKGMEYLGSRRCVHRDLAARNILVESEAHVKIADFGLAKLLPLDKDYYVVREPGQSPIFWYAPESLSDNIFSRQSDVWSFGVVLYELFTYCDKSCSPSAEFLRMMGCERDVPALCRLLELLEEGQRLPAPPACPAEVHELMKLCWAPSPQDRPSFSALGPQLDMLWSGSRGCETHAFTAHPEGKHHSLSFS

[7] = target: PI3-kinase p110-alpha/p85-alpha (Homo sapiens) (UniProt P27986+P42336); assay: Inhibition of human PI3K p110alpha/p85alpha assessed as residual activity at 1 uM relative to control; assay type: protein-complex assay
[8] = target: Phosphatidylinositol 4,5-bisphosphate 3-kinase catalytic subunit gamma isoform (Homo sapiens) (UniProt P48736); assay: Inhibition of human PI3K p120gamma assessed as residual activity at 1 uM relative to control
Sequence of Phosphatidylinositol 4,5-bisphosphate 3-kinase catalytic subunit gamma isoform (Homo sapiens) (P48736 whole entry, looked up, canonical isoform): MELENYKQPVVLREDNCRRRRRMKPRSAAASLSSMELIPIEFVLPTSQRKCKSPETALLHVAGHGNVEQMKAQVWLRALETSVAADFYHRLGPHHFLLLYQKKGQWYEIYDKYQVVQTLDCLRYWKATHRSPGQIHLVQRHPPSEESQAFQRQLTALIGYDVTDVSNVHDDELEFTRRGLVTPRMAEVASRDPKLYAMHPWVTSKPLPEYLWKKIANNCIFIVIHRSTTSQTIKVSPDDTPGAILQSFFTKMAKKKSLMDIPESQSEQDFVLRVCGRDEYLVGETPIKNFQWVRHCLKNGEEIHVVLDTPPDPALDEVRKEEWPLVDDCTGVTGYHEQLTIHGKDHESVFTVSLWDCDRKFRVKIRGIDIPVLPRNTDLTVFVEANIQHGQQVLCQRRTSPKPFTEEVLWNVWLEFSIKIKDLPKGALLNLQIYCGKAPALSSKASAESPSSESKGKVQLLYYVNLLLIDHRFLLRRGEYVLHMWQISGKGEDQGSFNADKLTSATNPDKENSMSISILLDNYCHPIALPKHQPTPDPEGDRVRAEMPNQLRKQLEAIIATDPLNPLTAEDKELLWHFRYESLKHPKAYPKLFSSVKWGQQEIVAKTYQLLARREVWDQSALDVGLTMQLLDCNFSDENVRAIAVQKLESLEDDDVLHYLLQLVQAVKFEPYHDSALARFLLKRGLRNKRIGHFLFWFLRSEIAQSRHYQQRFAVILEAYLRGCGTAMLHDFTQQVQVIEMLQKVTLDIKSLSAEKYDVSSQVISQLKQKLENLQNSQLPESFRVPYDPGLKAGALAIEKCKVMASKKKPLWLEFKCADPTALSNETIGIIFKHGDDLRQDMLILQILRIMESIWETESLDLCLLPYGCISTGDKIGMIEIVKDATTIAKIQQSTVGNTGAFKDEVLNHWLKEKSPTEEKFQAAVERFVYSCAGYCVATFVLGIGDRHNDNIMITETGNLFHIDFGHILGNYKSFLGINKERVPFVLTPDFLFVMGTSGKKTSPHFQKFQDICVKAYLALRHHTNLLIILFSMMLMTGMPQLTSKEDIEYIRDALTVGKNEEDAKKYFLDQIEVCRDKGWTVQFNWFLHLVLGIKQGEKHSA

Sequence of Fibroblast growth factor receptor 1 (Homo sapiens) (P11362 22-822 limits assumed): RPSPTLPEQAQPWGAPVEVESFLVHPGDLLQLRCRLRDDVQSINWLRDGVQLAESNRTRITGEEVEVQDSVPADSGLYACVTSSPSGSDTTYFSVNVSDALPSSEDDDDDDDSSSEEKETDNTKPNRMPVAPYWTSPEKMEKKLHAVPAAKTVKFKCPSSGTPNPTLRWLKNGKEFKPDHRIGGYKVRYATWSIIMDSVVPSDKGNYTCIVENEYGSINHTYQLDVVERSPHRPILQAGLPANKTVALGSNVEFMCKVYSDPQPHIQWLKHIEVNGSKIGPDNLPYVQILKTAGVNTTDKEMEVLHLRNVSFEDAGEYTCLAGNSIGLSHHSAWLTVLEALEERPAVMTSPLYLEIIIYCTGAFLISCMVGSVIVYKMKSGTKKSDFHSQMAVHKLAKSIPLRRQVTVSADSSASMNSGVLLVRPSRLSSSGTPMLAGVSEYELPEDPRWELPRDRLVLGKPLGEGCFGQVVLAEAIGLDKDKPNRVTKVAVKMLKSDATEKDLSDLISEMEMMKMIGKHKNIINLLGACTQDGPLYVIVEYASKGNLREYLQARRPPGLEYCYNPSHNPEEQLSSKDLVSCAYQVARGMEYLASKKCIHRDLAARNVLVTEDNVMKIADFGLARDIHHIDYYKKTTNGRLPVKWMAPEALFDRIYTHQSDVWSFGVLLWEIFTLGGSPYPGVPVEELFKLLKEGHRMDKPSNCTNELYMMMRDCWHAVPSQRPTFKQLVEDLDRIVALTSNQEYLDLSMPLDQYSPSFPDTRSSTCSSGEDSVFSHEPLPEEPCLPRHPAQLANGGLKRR
Sequence of Aurora kinase B (Q96GD4 whole entry): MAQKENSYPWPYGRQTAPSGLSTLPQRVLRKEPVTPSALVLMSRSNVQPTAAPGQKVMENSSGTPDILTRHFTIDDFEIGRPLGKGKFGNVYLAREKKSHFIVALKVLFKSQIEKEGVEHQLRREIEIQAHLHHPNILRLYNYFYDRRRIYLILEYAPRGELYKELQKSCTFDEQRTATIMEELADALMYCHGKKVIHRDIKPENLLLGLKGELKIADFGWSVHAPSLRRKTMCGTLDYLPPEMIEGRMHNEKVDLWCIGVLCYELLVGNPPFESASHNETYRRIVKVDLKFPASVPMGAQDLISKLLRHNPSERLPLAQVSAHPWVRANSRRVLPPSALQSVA
Sequence of Tyrosine-protein kinase Blk (Homo sapiens) (P51451 2-505 limits assumed): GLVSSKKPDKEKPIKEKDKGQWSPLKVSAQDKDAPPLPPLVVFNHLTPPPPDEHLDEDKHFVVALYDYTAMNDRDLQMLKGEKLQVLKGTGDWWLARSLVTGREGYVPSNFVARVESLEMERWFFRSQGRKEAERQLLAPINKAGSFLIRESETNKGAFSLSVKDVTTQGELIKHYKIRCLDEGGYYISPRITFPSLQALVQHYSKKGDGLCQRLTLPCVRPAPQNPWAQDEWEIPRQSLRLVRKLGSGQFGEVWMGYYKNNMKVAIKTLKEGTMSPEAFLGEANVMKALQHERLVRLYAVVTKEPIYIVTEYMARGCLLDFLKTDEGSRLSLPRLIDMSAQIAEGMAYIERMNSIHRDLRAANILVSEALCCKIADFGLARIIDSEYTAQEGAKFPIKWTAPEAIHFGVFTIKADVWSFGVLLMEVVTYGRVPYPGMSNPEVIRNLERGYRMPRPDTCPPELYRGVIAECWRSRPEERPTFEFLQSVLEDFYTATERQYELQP

| Activity [1] [%] | Activity [2] [%] | Activity [3] [%] | Activity [4] [%] | IC50 [5] [nM] | Activity [6] [%] | Activity [7] [%] | Activity [8] [%] | SMILES |
| --- | --- | --- | --- | --- | --- | --- | --- | --- |
| 25 | 43 | 70 | 95 | 77 | 91 | 91 | 86 | COc1ccc(-c2nc3cc(-c4csc(C(=O)NCC(C)C)c4)cnc3[nH]2)cc1 |
| 13 | 78 | 91 | 95 | 143 | 96 | 88 | 90 | COc1ccc(-c2nc3cc(-c4csc(C(=O)NCCC(C)C)c4)cnc3[nH]2)cc1 |
| 48 | 75 | 94 | 99 | 84 | 94 | 86 | 85 | COc1ccc(-c2nc3cc(-c4csc(C(=O)NCC(C)(C)C)c4)cnc3[nH]2)cc1 |
